US20120157439A1, “RAF INHIBITOR COMPOUNDS AND METHODS OF USE THEREOF” (GENENTECH, INC., priority 2009, published 2012)
Like-named read-outs stand apart in the source and are kept apart here.

Molecular target: T1, V600E full-length B-Raf (Homo sapiens, UniProt P15056, V600E)
T1 construct: 1 μM FSBA-MEK and 20 nM V600E full-length B-Raf; made in house; host or cells: sf9 insect cells (baculovirus)
Test: B-Raf IC50 Assay (B-RAF V600E inhibition assay, Example A)
Type: biochemical
How it was run: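 Full-length V600E B-Raf (20 nM, from Sf9 baculovirus) was preincubated 15 min with 1 μM FSBA-modified wild-type MEK in pH 7.2 Pipes/KCl/MgCl2 buffer, then started with 4 μM ATP plus [γ-33P]ATP. After 60 min at 22 °C, TCA-quenched product was filter-captured and 33P incorporation counted by scintillation.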

[1] = B-Raf V600E assay of Example A: less than about 1 μM, read-out: IC50
[2] = incorporation of radio labeled phosphate from [γ-33P]ATP into FSBA-modified wild-type MEK, 4 μM ATP, 20 nM V600E full-length B-Raf, 60-minute incubation, 22° C., read-out: BRAF V600E IC50
[3] = B-Raf V600E assay of Example A: less than 100 nM, read-out: IC50

T1 sequence (P15056 whole entry V600E): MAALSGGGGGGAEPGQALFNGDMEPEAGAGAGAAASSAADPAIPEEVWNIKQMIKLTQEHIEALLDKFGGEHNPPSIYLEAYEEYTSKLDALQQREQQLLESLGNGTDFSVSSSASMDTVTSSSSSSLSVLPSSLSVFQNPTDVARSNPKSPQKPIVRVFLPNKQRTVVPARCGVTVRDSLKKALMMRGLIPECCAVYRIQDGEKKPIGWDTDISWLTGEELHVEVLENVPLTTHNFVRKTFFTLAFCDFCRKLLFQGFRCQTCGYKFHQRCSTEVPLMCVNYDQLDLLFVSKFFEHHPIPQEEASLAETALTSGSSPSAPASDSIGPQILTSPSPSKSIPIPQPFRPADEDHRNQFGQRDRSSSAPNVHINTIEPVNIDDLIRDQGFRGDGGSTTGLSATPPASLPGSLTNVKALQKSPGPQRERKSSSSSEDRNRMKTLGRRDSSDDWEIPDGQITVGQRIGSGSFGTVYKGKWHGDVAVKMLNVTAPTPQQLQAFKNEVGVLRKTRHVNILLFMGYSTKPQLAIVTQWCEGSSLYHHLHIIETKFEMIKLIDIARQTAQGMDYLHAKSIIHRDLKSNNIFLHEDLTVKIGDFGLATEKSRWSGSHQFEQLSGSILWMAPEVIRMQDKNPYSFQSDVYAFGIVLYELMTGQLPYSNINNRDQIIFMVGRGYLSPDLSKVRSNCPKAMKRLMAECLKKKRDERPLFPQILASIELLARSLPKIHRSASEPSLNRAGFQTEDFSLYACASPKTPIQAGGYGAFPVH

| Structure (SMILES) | IC50 [1] [µM] | IC50 [2] [µM] | IC50 [3] [µM] |
| --- | --- | --- | --- |
| CCCS(=O)(=O)Nc1cc(F)c(F)c(NC(=O)c2csc3c(NC4CCOC4)ncnc23)c1F (centres unmarked) [Example 88, 4-(Tetrahydro-furan-3-ylamino)-thieno[3,2-d] pyrimidine-7-carboxylic acid [2,3,6-trifluoro-5-(propane-1-sulfonyl-amino)-phenyl]-amide] | < 1 | 0.12 |  |
| CCCS(=O)(=O)Nc1ccc(F)c(NC(=O)c2csc3c(Nc4cnn(C)c4)ncnc23)c1F [Example 61, 4-(1-Methyl-1H-pyrazol-4-ylamino)-thieno[3,2-d] pyrimidine-7-carboxylic acid [2,6-difluoro-3-(propane-1-sulfonylamino)-phenyl]-amide] | < 1 | 0.0017 | < 0.1 |
| CCCS(=O)(=O)Nc1ccc(F)c(NC(=O)c2csc3c(NC4CC4)ncnc23)c1Cl [Example 43, 4-Cyclopropylamino-thieno[3,2-d]pyrimidine-7-carboxylic acid [2-chloro-6-fluoro-3-(propane-1-sulfonylamino)-phenyl]-amide] | < 1 | 0.0019 | < 0.1 |
| CCCS(=O)(=O)Nc1ccc(F)c(NC(=O)c2csc3c(N)ncnc23)c1 [Example 27, 4-Amino-thieno[3,2-d]pyrimidine-7-carboxylic acid[2-fluoro-5-(propane-1-sulfonylamino)-phenyl]-amide] | < 1 | 0.125 |  |
| CCCS(=O)(=O)Nc1cc(F)c(F)c(NC(=O)c2csc3c(N)ncnc23)c1F [Example 23, 4-Amino-thieno[3,2-d] pyrimidine-7-carboxylic acid [2,3,6-trifluoro-5-(pro-pane-1-sulfonyl-amino)-phenyl]-amide] | < 1 | 0.0008 | < 0.1 |
| CCCS(=O)(=O)Nc1ccc(F)c(NC(=O)c2csc3c(NC4CCCC4)ncnc23)c1F [Example 54, 4-Cyclopentyl-amino-thieno [3,2-d] pyrimidine-7-carboxylic acid [2,6-difluoro-3-(propane-1-sulfonylamino)-phenyl]-amide] | < 1 | 0.416 |  |
| CCCS(=O)(=O)Nc1ccc(Cl)c(NC(=O)c2csc3c(NCC)ncnc23)c1Cl [Example 76, 4-Ethylamino-thieno[3,2-d] pyrimidine-7-carboxylic acid [2,6-dichloro-3-(propane-1-sulfonyl-amino)-phenyl]-amide] | < 1 | 0.0006 | < 0.1 |
| CCNc1ncnc2c(C(=O)Nc3c(Cl)ccc(NS(=O)(=O)CCCF)c3Cl)csc12 [Example 83, 4-Ethylamino-thieno[3,2-d] pyrimidine-7-carboxylic acid [2,6-dichloro-3-(3-fluoro-propane-1-sulfonyl-amino)-phenyl]-amide] | < 1 | 0.00032 | < 0.1 |
| CCCS(=O)(=O)Nc1ccc(F)c(NC(=O)c2csc3c(C)ncnc23)c1Cl [Example 38, 4-Methyl-thieno[3,2-d]pyrimidine-7-carboxylic acid [2-chloro-6-fluoro-3-(propane-1-sulfonylamino)-phenyl]-amide] | < 1 | 0.0465 | < 0.1 |
| CCNc1ncnc2c(C(=O)Nc3c(F)c(F)cc(NS(=O)(=O)CCCF)c3F)csc12 [Example 98, 4-Ethylamino-thieno[3,2-d] pyrimidine-7-carboxylic acid [2,3,6-trifluoro-5-(3-fluoro-propane-1-sulfonyl-amino)-phenyl]-amide] | < 1 | 0.00216 | < 0.1 |
| CCCS(=O)(=O)Nc1cc(F)cc(NC(=O)c2csc3c(N)ncnc23)c1F [Example 20, 4-Amino-thieno[3,2-d] pyrimidine-7-carboxylic acid [2,5-difluoro-3-(propane-1-sulfonyl-amino)-phenyl]-amide] | < 1 | 0.0057 | < 0.1 |
| CCCS(=O)(=O)Nc1ccc(Cl)c(NC(=O)c2csc3c(NC4CCC4)ncnc23)c1Cl [Example 72, 4-Cyclobutyl-amino-thieno [3,2-d] pyrimidine-7-carboxylic acid [2,6-dichloro-3-(propane-1-sulfonyl-amino)-phenyl]-amide] | < 1 | 0.0024 | < 0.1 |
| CCCS(=O)(=O)Nc1ccc(F)c(NC(=O)c2csc3c(NCC(F)F)ncnc23)c1F [Example 53, 4-(2,2-Difluoro-ethylamino)-thieno[3,2-d] pyrimidine-7-carboxylic acid [2,6-difluoro-3-(propane-1-sulfonylamino)-phenyl]-amide] | < 1 | 0.0265 | < 0.1 |
| CCCS(=O)(=O)Nc1ccc(F)c(NC(=O)c2csc3c(NCCF)ncnc23)c1F [Example 52, 4-(2-Fluoro-ethylamino)-thieno[3,2-d] pyrimidine-7-carboxylic acid [2,6-difluoro-3-(propane-1-sulfonylamino)-phenyl]-amide] | < 1 | 0.0157 | < 0.1 |
| CCCS(=O)(=O)Nc1ccc(Cl)c(NC(=O)c2csc3c(NC#N)ncnc23)c1Cl [Example 73, 4-Cyano-amino-thieno[3,2-d] pyrimidine-7-carboxylic acid [2,6-dichloro-3-(propane-1-sulfonyl-amino)-phenyl]amide] | < 1 | 0.014 | < 0.1 |
| O=C(Nc1c(F)c(F)cc(NS(=O)(=O)CCCF)c1F)c1csc2c(NC3CC3)ncnc12 [Example 97, 4-Cyclopropyl-amino-thieno [3,2-d] pyrimidine-7-carboxylic acid [2,3,6-trifluoro-5-(3-fluoro-propane-1-sulfonyl-amino)-phenyl]-amide] | < 1 | 0.00071 | < 0.1 |
| CCCS(=O)(=O)Nc1ccc(F)c(NC(=O)c2ccc3c(N)ncnn23)c1F [Example 101, 4-Amino-pyrrolo[2,1-f][1,2,4]triazine-7-carboxylic acid [2,6-difluoro-3-(propane-1-sulfonylamino)-phenyl]-amide] | < 1 | 0.0025 | < 0.1 |
| CCCS(=O)(=O)Nc1ccc(F)c(NC(=O)c2c[nH]c3c(NOC)ncnc23)c1F [Example 105, 4-Methoxyamino-5H-pyrrolo[2-d]pyrimidine-7-carboxylic acid [2,6-difluoro-3-(propane-1-sulfonylamino)-phenyl]-amide] | < 1 | 0.112 |  |
| CCCS(=O)(=O)Nc1cccc(NC(=O)c2nsc3c(N)ncnc23)c1C#N [Example 33, 7-Amino-isothiazolo[4,5-d]pyrimidine-3-carboxylic acid [2-cyano-3-(propane-1-sulfonylamino)-phenyl]-amide] | < 1 | 0.00038 | < 0.1 |
| O=C(Nc1c(Cl)ccc(NS(=O)(=O)CCCF)c1Cl)c1csc2cncnc12 [Example 110, Thieno[3,2-d]pyrimidine-7-carboxylic acid [2,6-dichloro-3-(3-fluoro-propane-1-sulfonyl-amino)-phenyl]-amide] | < 1 | 0.00269 | < 0.1 |
| CCCS(=O)(=O)Nc1cc(F)c(F)c(NC(=O)c2csc3c(NC)ncnc23)c1F [Example 92, 4-Methyl-amino-thieno[3,2-d] pyrimidine-7-carboxylic acid [2,3,6-trifluoro-5-(propane-1-sulfonyl-amino)-phenyl]-amide] | < 1 | 0.0132 | < 0.1 |
